Tested on: d(C3TA2)3C3/d(T2AG3)4 duplex (DNA, duplex) CCCTAACCCTAACCCTAACCC/TTAGGGTTAGGGTTAGGGTTAGGG
Assay: fluorescence titration, IT/IN, modified Benesi-Hildebrand
Details: citrate 10 mM; 10 mM citrate pH 7.0, <1% ethanol, 25 °C

First: O=c1c(O)c(-c2ccc(O)c(O)c2)oc2cc(O)cc(O)c12
Second: O=c1c(O)c(-c2ccc(O)c(O)c2)oc2cc(O)ccc12
The Ka of the first is 4.4-fold lower: 10400 M⁻¹ for the first, 46200 M⁻¹ for the second.

O=c1c(O)c(-c2ccccc2)oc2ccccc12 was tested, and the Ka was 86700 M⁻¹.
